Experimental data as given in ChEMBL document CHEMBL1127233, “Isolation and structure of axinastatin 5 from a republic of comoros marine sponge” (1994).
≈ marks a conversion by molar mass, not a printed value. Peptide text beside a SMILES is read from it.

Legend:
Type in all cases: functional
[1] = system: SK-MEL-5; assay: Growth inhibitory activity against SK-MEL-5 human cancer cell line
[2] = system: P388; assay: Inhibitory activity against murine P388 leukemia cell line; conditions: Mus musculus, read-out: ED50 (the source's name)
[3] = system: OVCAR-3; assay: Growth inhibitory activity against OVCAR-3 human cancer cell line
[4] = system: KM-20L2; assay: Growth inhibitory activity against KM20L2 human cancer cell line
[5] = system: SF-295; assay: Growth inhibitory activity against SF-295 human cancer cell line
[6] = system: A498; assay: Growth inhibitory activity against A498 human cancer cell line
[7] = system: NCI-H460; assay: Growth inhibitory activity against NCI-H460 human cancer cell line

Row | GI50 ([1]; read-out: GI50) [µg/mL] | EC50 [2] [µg/mL] | GI50 ([3]; read-out: GI50) [µg/mL] | GI50 [7] [µg/mL] | GI50 [1] [µg/mL] | GI50 [3] [µg/mL] | SMILES | GI50 ([4]; read-out: GI50) [µg/mL] | GI50 ([5]; read-out: GI50) [µg/mL] | GI50 ([6]; read-out: GI50) [µg/mL] | GI50 [4] [µg/mL] | GI50 [5] [µg/mL] | GI50 [6] [µg/mL]
1 | 0.5 (≈ 0.56 µM) | 3.5 (≈ 3.92 µM) | 0.3 (≈ 0.336 µM) | 0.5 (≈ 0.56 µM) | – | – | CC[C@H](C)[C@@H]1NC(=O)[C@H](CC(C)C)NC(=O)[C@@H]2CCCN2C(=O)[C@H](C(C)C)NC(=O)[C@H](Cc2ccc(O)cc2)NC(=O)[C@@H]2CCCN2C(=O)[C@@H]2CCCN2C(=O)[C@H](CC(C)C)NC1=O [AXINASTATIN 5] (cyclo(ILPPYVPL)) | 0.7 (≈ 0.784 µM) | 1.6 (≈ 1.79 µM) | 2.3 (≈ 2.58 µM) | – | – | –
2 | – | – | – | 0.3 (≈ 0.336 µM) | 0.6 (≈ 0.672 µM) | 0.04 (≈ 0.0448 µM) | CC[C@H](C)[C@@H]1NC(=O)[C@H](CC(C)C)NC(=O)[C@@H]2CCCN2C(=O)[C@H](C(C)C)NC(=O)[C@H](Cc2ccc(O)cc2)NC(=O)[C@@H]2CCCN2C(=O)[C@@H]2CCCN2C(=O)[C@H]([C@@H](C)CC)NC1=O [Hymenistatin 1] (cyclo(IIPPYVPL)) | – | – | – | 0.1 (≈ 0.112 µM) | 0.3 (≈ 0.336 µM) | 0.7 (≈ 0.784 µM)
